In one data set the target is hCav1.2/β2/α2δ channels (Homo sapiens, UniProt Q13936). The data set is described as follows: CaV1.2 manual patch clamp, CHO cells (CR-CLE). Format: cell-based. To be noted: manual patch clamp, room temperature, read-out: CaV 1.2 IC50. The text has this:
Stocks were maintained in cryogenic storage. […] Each culture dish was identified by a notation of channel name, passage number, and date.
Rationale for Selection of Ion Channel and Expression Systems: Reduction of ICa,L is associated with action potential shortening in atrial fibrillation (Van Wagoner, et al., Circ Res 85:428-436 (1999)) while augmentation of ICa,L current may produce action potential prolongation (Ahmmed, et al., Circ Res 86:558-570 (2000)) and early after depolarizations (January, et al., Circ Res 62:563-571 (1988)). ICa.L is produced by the combination of calcium channel subunits encoded by CACNA1C (α1-subunit), CACNB2 (β2-subunit) and CACNA2D1 (α2δ-subunit) cDNAs.
• Organism: Cricetulus griseus • Tissue: Ovary; transfected with human CACNA1C • (α1-subunit), CACNB2 (β2-subunit), and • CACNA2D1 (α2δ-subunit) cDNAs • Morphology: Epithelial • Age/Stage: Adult • Source Strain: ATCC, Manassas, VA • Source Substrain: CR-CLE
CHO Cell Culture Procedures: CHO cells were stably co-transfected with human CACNA1C (α1-subunit), CACNB2 (β2-subunit), and CACNA2D1 (α2δ-subunit) cDNAs. Stable transfectants were selected by coexpression of the cDNAs with antibiotic resistance genes for blasticidin, hygromycin, G418, and zeocin. Selection pressure was maintained by including these antibiotics in the culture medium. Cells were cultured in Ham's F12 Medium supplemented with 10% fetal bovine serum, penicillin-streptomycin (100 units/mL), blasticidin (10 μg/mL), zeocin (400 μg/mL), G418 (250 μg/mL) and hygromycin (250 μg/mL). To avoid Ca^2+-induced toxicity, verapamil (3 μmol/L) was added to the cultured cells.
hCav1.2/β2/α2δ-CHO is a tetracycline-inducible cell line. To induce expression, tetracycline at a final concentration of 1 μg/mL was added to media lacking the selection antibiotics. Currents were recorded greater than 16 hours post-induction.
Treatment Groups: All experiments were performed at room temperature. Each cell acted as its own control.
Each concentration was tested in at least three cells (n≥3).
Positive Control Group: The positive control article nifedipine (Sigma-Aldrich) was tested in two cells (n=2) at 0.1 μM. Previous results have shown that nifedipine at 0.1 μM inhibits hCav1.2 current by approximately 90%.
Electrophysiological Procedures: Cells were superfused with vehicle control solution. Micropipette solution for whole cell patch clamp recordings was composed of (mM): Cs-methanesulfonate (MES), 130; TEA-Cl, 20, MgCl2, 1; EGTA, 10; Mg-ATP, 4; Tris-GTP, 0.3, phosphocreatine di-(Tris) salt, 14, creatine phosphokinase, 50 U/mL, and HEPES, 10; pH adjusted to 7.2 with N-methyl-D-glucamine or CsOH. Micropipette solution was prepared in batches, aliquoted, stored frozen, and a fresh aliquot thawed each day. […] Before digitization, current records were low-pass filtered at one-fifth of the sampling frequency.
Experimental Procedures: Onset and steady inhibition was evaluated at a test potential of 0 mV (150 ms duration), repeated at ten-second intervals from a holding potential of −40 mV. Peak current was measured during the step to 0 mV. Peak current was monitored until a new steady state was achieved. hCav1.2 current was monitored until a new steady state was achieved and a steady state was maintained for at least 20 s before applying test article or positive control article formulations. […]
(§1) Nonlinear least squares fits were solved with the Solver add-in for Excel 2003 or later (Microsoft, Redmond, WA) and the IC50 was calculated.

For data set [1] the following is noted: as stated by the drug label; cited from earlier work.
In data set [2] the target is T1, late hNav1.5 channel current (Homo sapiens, UniProt Q14524). The data set is described as follows: NaV1.5 (for pimavanserin): late hNav1.5 current, HEK-293, ATX-II activated (CR-CLE). The data set is classed as cell-based. Conditions: read-out: NaV 1.5 IC50. The protocol:
as §1
0.1 μM ATX-II was omitted from the vehicle control solution used during initial gigaohm seal formation, transition to whole-cell patch clamp configuration and preliminary baseline recording before activation of late Nav1.5 current with 0.1 μM ATX-II. […] Positive Control Article: • Name: Ranolazine dihydrochloride • Source: Tocris • Batch Number: 2A/215231 • Molecular Weight: 509.47 g/mol • Purity: 98.7% • Storage Conditions: Room temperature • Rationale for Selection: Previous results have shown that 100 μM ranolazine dihydrochloride inhibits INa,L by approximately 85% End Blocker • Name: Lidocaine • Source: Sigma-Aldrich • Lot Number: MKBX2132V • Molecular Weight (g/mol): 234.34 • Storage Conditions: Room temperature • Rationale for Selection: Lidocaine is an inhibitor of peak hNav1.5 and late hNav1.5 currents. Each recording will end with application of 2 mM lidocaine to determine the amplitude of endogenous currents. […]
Electrophysiological Procedures: Cells were superfused with vehicle control solution without ATX-II (HB-PS+0.3% DMSO) until after whole-cell configuration was achieved and a stable baseline current was recorded. […]

For data set [3], the target named is T1, late hNav1.5 channel current. Conditions: Oliveira, et al., J. Biol. Chem. 279 (2004); read-out: EC50 for increase of INa,L; cited from earlier work.

The text below walks through data of patent US12139477B2, “Compounds, salts thereof and methods for treatment of diseases” (ACADIA PHARMACEUTICALS INC., priority 2017, dated 2024).

pEC50, pIC50: −log10 of the molar value.

T1 sequence (Q14524 whole entry): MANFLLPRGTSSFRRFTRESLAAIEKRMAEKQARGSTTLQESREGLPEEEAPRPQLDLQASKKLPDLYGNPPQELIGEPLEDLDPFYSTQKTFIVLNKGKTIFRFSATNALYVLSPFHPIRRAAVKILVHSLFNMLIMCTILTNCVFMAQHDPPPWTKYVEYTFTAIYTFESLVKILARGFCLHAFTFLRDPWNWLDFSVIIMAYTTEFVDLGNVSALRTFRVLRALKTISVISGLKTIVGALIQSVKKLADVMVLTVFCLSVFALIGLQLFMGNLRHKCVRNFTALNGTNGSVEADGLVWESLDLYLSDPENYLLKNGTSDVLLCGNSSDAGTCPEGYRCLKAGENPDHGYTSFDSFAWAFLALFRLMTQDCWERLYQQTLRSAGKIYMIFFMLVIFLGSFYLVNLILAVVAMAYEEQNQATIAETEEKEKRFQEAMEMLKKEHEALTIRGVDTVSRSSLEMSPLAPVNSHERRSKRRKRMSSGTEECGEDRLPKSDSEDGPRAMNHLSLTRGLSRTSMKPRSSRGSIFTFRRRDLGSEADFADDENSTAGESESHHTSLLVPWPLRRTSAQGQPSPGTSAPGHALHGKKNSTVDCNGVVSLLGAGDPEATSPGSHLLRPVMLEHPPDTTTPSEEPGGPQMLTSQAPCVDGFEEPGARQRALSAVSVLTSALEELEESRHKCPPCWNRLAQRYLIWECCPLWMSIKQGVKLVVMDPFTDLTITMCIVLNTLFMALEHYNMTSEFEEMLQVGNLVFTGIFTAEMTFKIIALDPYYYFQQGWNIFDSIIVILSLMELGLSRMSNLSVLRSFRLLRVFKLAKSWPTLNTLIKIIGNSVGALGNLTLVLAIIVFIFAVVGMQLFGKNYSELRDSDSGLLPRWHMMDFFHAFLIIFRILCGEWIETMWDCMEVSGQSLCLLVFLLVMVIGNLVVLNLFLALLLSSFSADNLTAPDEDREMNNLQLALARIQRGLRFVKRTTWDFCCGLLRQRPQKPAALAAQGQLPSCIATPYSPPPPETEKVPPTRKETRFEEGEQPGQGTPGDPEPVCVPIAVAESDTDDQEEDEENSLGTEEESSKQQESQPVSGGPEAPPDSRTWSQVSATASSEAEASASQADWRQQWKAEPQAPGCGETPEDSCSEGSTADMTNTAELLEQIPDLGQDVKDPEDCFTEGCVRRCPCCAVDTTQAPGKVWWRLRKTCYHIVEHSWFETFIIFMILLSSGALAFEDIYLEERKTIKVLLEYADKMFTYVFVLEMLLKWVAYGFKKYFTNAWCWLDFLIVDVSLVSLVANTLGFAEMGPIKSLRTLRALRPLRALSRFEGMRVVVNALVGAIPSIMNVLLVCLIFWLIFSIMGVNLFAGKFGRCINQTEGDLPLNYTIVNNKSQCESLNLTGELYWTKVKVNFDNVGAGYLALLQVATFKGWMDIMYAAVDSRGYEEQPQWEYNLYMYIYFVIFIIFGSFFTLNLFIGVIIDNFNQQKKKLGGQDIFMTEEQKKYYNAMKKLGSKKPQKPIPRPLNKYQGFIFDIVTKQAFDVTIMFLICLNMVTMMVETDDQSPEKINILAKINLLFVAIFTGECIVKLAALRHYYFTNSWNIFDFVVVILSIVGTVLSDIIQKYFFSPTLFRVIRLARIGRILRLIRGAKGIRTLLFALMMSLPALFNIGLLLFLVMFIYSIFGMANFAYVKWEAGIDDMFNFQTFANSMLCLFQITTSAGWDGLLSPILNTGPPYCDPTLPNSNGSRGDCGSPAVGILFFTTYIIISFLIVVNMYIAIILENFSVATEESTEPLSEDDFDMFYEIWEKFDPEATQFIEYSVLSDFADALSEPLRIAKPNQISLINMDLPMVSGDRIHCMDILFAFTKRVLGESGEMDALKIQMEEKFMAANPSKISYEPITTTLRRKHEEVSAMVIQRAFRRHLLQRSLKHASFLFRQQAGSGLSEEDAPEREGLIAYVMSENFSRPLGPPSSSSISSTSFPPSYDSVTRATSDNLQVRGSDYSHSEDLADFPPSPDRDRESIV

As to `CC(C)COc1ccc(CNC(=O)N(Cc2ccc(F)cc2)C2CCN(C)CC2)cc1` [Pimavanserin], the pIC50 (on hCav1.2/β2/α2δ channels; in data set [2]) was 5.92 each time. The “effect on QT interval” value in data set [1] is “prolongs the QT interval”.

Regarding “ATX-II: "Late hNav1.5 Current Agonist"; "ATX-II increases INa,L"; Molecular Weight 4935; Source: Alomone Labs”, in data set [3], the pEC50 was around 8.40.
